Assay results reported in paper PMC6736568, “Discovery of Novel Anti-cryptosporidial Activities From Natural Products by in vitro High-Throughput Phenotypic Screening” (Frontiers in Microbiology, 2019).
Where two headings read alike, the source gives them in different places. *1 amine or outer side, *2 acyl side, *3 side chain or, on linkers, in order; H or OH if unused. Where a SMILES comes first, the peptide text is derived from it. Bridges are numbered along the chain shown (N, C = ends). Roman numbers before positions name the chains, in order. [ ]: non-standard residue; d: D form. Actinocin(9to1) = Cc1c2oc3c(C)ccc(C(=O)[*:1])c3nc-2c(C(=O)[*:2])c(N)c1=O; NMeV = CN[C@H](C(=O)O)C(C)C; Sar = CNCC(=O)O

Experiments:
[1] = system: Cryptosporidium parvum; test: qRT-PCR assay of the growth of C. parvum in vitro in HCT-8 host cells (primary and secondary screening, EC50); assay type: cell-based; conditions: Cryptosporidium parvum; for inhibition at 10 µM / inhibition at 3.3 µM: HCT-8; for inhibition at 10 µM: primary screening at 10 uM, read-out: Inhibition (%); for inhibition at 3.3 µM: secondary screening at 3.3 uM, read-out: % Inhibition (3.3 uM); for EC50: growth of C. parvum in vitro, HCT-8 host cells, 44 h infection
[2] = system: HCT-8 host cells (Hs18S)
[3] = system: HCT-8 cells; test: In vitro cytotoxicity MTS assay on host cells; assay type: cell-based, human; conditions: 41 h
Description: The plates were measured for absorbance at 490 nm in 15 min intervals in a SmartReader 96 microplate reader (Accuris, Edison, NJ, United States). Cytotoxicity of a compound was quantified by calculating the half maximal toxic concentration on host cells (TC50). An in vitro safety interval (SI) was calculated by determining the ratio between TC50 and EC50 values (i.e., SI = TC50/EC50).

[4] = in vitro; conditions: for cytotoxicity at 41 h, 10 µM: human
[5] = system: cryptosporidial infection; set-up: method as in Lemeteil et al., 1993; conditions: ref Lemeteil et al., 1993; cited from earlier work
[6] = system: Cryptosporidium parvum; test: Effect on different parasite developmental stages in vitro (qRT-PCR); assay type: cell-based; conditions: cedrelone 1.0 μM, Deox B 7,4 2.0 μM, baicalein 3.3 μM, PRM 150 μM
Description: We selected three top hits derived from plants for evaluating their activity against various developmental stages of C. parvum. For evaluating the effect on the parasite invasion (i.e., 0–3 hpi treatment groups), host cell monolayers will be incubated with C. parvum oocysts (10^5 oocysts/well) in 96-well plates together with individual compounds at around EC80 concentrations. For evaluating the effect on various stages of intracellular parasites (i.e., 3–10 hpi, […], 22–44 hpi, and 3–44 hpi treatment groups), host cell monolayers were incubated with C. parvum oocysts (50,000 oocysts/well) for 3 h, followed by the removal of uninvaded parasites by a medium exchange. These time points roughly corresponded to the invasion into host cells (0–3 hpi), the development of first and some second generation of merogony (3–22 hpi) or second generation of merogony and gametogenesis (22–44 hpi). Individual compounds at EC80 final concentrations were added into wells at specified post-infection time points, and plates were incubated for specified durations of post-infection times. Cell lysates were prepared at the end of each treatment for qRT-PCR.
(§1) In all experiments, negative controls were treated with diluent (0.5% DMSO) for the same durations of corresponding drug treatment groups. All experiments include least three biological replicates for each compound in the in vitro drug treatment assay and two technical replicates for each biological replicate in the qRT-PCR assay.

[7] = system: Cryptosporidium parvum; test: Drug withdrawal assay (qRT-PCR at 44 hpi); assay type: cell-based; conditions: assayed at 44 hpi, cedrelone 1.0 μM, Deox B 7,4 2.0 μM, baicalein 3.3 μM, PRM 150 μM
Description: For drug withdrawal assay, HCT-8 cells were cultured and inoculated with C. parvum oocysts (50,000 oocysts/well) for 3 h. After a medium exchange, individual compounds at EC80 final concentrations were added into wells. Compounds were removed at 22 hpi time point by a medium exchange, and infected cells were allowed to grow up to 44 hpi (3–22 hpi treatment groups). A full course of treatment for each compound was included as control (3–44 hpi treatment groups). Cell lysates were prepared at 44 hpi time point for qRT-PCR.
as §1

[8] = mouse, ip; ref MicroSource NatProd Collection note; cited from earlier work
[9] = primary screening at 10 uM, treated vs control

SMILES | inhibition at 10 µM [1] [%] | inhibition at 3.3 µM [1] [%] | EC50 [1] [µM] | Hs18S ΔCT [2, 9] | TC50 ([3]; HCT-8 cells, MTS) [µM] | cytotoxicity at 10 µM [4] [%] | Hs18S ΔCT ([2]; human, 41 h, 10 μM) | cytotoxicity at 41 h, 10 µM [4] [%] | also measured
Cc1c2oc3c(C)ccc(C(=O)N[C@@H]4C(=O)N[C@H](C(C)C)C(=O)N5CCC[C@H]5C(=O)N(C)CC(=O)N(C)[C@@H](C(C)C)C(=O)O[C@@H]4C)c3nc-2c(C(=O)N[C@@H]2C(=O)N[C@H](C(C)C)C(=O)N3CCC[C@H]3C(=O)N(C)CC(=O)N(C)[C@@H](C(C)C)C(=O)O[C@@H]2C)c(N)c1=O [Dactinomycin, reference compound] (I: T[dV]P[Sar][NMeV] / II: T[dV]P[Sar][NMeV]; ester I:1-I:C, II:1-II:C; linker I:N-II:N via Actinocin(9to1)) | 94.3 | 97 | 0.314 | 1.50 | 2.82 | 64.6 | – | – | –
COc1cccc2c1C(=O)c1c(O)c3c(c(O)c1C2=O)C[C@@](O)(C(C)=O)C[C@@H]3O[C@H]1C[C@H](N)[C@H](O)[C@H](C)O1 [Daunorubicin, reference compound] | 76.8 | 71 | 1.49 | – | – | – | 0.99 | 49.5 | TC50 ([3]; human): 42.6 µM; efficacy on cryptosporidial infection in rats [5]: ineffective
CC1(C)C(=O)C=C[C@]2(C)[C@H]3CC[C@@]4(C)[C@H](c5ccoc5)OC(=O)[C@H]5O[C@]54[C@]3(C)C(=O)C[C@@H]12 [Deacetoxy-7-oxogedunin] | 88.7 | 77 | 1.94 | 0.39 | 12.8 | 23.6 | – | – | –
CC1(C)C(=O)C=C[C@]2(C)[C@H]3CC[C@@]4(C)[C@H](c5ccoc5)OC(=O)[C@H]5O[C@]54[C@]3(C)[C@H](O)C[C@@H]12 [Deacetylgedunin] | 91.1 | 56 | 1.77 | 0.23 | 30.9 | 14.8 | – | – | –
COc1ccc2c(c1)OCC(Cc1ccc(OC)c(OC(C)=O)c1)C2=O (stereo not drawn) [Deoxysappanone B 7,3′-dimethyl ether acetate] | 87.4 | 71 | 1.19 | – | >100 | – | 0.24 | 15.5 | –
COc1ccc2c(c1)OC[C@H](Cc1ccc(OC)c(O)c1)C2=O [Deoxysappanone B 7,4′-dimethyl ether] | 91.3 | 52 | 0.734 | – | 64.9 | – | 0.62 | 35.1 | inhibition at 2 µM ([6]; treatment 0-3 hpi (excystation and invasion)): -5.5 ± 7.2%; inhibition at 2 µM ([6]; treatment 3-10 hpi): 9.1 ± 10.4%; inhibition at 2 µM ([6]; treatment 3-22 hpi, assayed at end of treatment): 18%; inhibition at 2 µM ([6]; treatment 3-44 hpi (full course)): 67.2%; inhibition at 2 µM ([6]; treatment 22-44 hpi): 22.9 ± 6.8%; inhibition at 2 µM ([7]; full course 3-44 hpi, read-out: 3-44 hpi Inhibition): 73.8%; inhibition at 2 µM ([7]; treated 3-22 hpi, compound removed, read-out: 3-22 hpi Inhibition): 61.9%
CC(C)=CCCC1(C)C=Cc2c(O)c3c(c(CC=C(C)C)c2O1)OC12C(=CC4CC1C(C)(C)OC2(C/C=C(/C)C(=O)O)C4O)C3=O (stereo not drawn) [Dihydrogambogic acid] | 97.7 | 57 | 1.67 | -0.60 | – | -52 | – | – | TC50 ([3]; human): 6.31 µM
Cc1cccc2c3c(ccc12)C1=C(C(=O)C3=O)[C@@H](C)CO1 [Dihydrotanshinone I] | 87 | 75 | 3.08 | – | – | – | 0.00 | 0.2 | TC50 ([3]; human): 25.0 µM
CC[C@H](C)C(=O)O[C@H]1C[C@@H](C)C=C2C=C[C@H](C)[C@H](CC[C@@H]3C[C@@H](O)CC(=O)O3)[C@H]21 [Lovastatin, reference compound] | 85.8 | 58 | 2.41 | – | >100 | – | 0.60 | 34.1 | –
CO[C@@]12[C@H](COC(N)=O)C3=C(C(=O)C(C)=C(N)C3=O)N1C[C@@H]1N[C@@H]12 [Mitomycin, reference compound] | 93.7 | 78 | 0.133 | – | 13.1 | 60.5 | – | – | Hs18S ΔCT [2]: 1.34
COC1=C[C@@H]2[C@@H]3Cc4ccc(OC)c(O)c4[C@]2(CCN3C)CC1=O [SINOMENINE] | -83.5 | – | – | -0.78 | – | -71.8 | – | – | LD50 [8]: 285 mg/kg
Cc1coc2c1C(=O)C(=O)c1c-2ccc2c1CCCC2(C)C [Tanshinone IIA] | 82.7 | 63 | 0.964 | 0.08 | >100 | 5.6 | – | – | –
CC(C)[C@@H]1NC(=O)[C@H](C)OC(=O)[C@@H](C(C)C)NC(=O)[C@@H](C(C)C)OC(=O)[C@H](C(C)C)NC(=O)[C@H](C)OC(=O)[C@@H](C(C)C)NC(=O)[C@@H](C(C)C)OC(=O)[C@H](C(C)C)NC(=O)[C@H](C)OC(=O)[C@@H](C(C)C)NC(=O)[C@@H](C(C)C)OC1=O [Valinomycin, reference compound] | 92.3 | 87 | 0.122 | -0.13 | >50 | -9.2 | – | – | –
